Data as given in patent US20230303539A1, “IMMUNOREGULATORY COMPOUND AND ANTITUMOR APPLICATION THEREOF” (SHANGHAITECH UNIVERSITY, priority 2020, published 2023).

Assays:
B lymphoma cells Daudi = assay: Cell proliferation inhibition (cell viability, CCK-8) in Daudi; type: cell-based; settings: Homo sapiens, 72 h treatment, CCK-8 cell viability
Text: (§1) The tested cell lines used were: Multiple myeloma cell line MM.1S, human Burkitt's lymphoma cell line Daudi, human acute promyelocytic leukemia cell line NB4, human mantle cell lymphoma cell line JEKO-1, human B-cell lymphoma cell line SU-DHL-4, human mantle cell lymphoma cell line Mino, human diffuse large B-cell lymphoma cell line TMD8, human B-cell lymphoma cell line DOHH2, PBMCs cell and human diffuse large B-cell lymphoma cell line WSU-DLCL2, which were purchased from ATCC (American type Culture Collection) or Cell Bank/Stem Cell Bank, Chinese Academy of Sciences. The medium was RPMI1640 supplemented with 10% FBS (fetal calf serum) and 1% Penicillin-Streptomycin. The cells used were identified as correct cells by STR cells, and were negative for mycoplasma through routine inspections.
(§2) IC50 values of the compounds of the present disclosure (including the compounds in Table 1 and compounds of examples 1-23) were measured using Cell Titer Blue, Cell Titer GLO, or WST reagent from Promega Company. Assay details are as follows: Cells were seeded in 100 μL RPMI1640 medium containing serum at a density of 15,000 cells/well. After 24 h, the inoculated cells were treated with diluted commercial inhibitor and the compounds of the present disclosure to be tested after serial dilution. After the cells were treated with the compounds of the present disclosure to be tested for 72 h, cell viability was determined after adding the cell viability detection kit listed above according to the reagent operating instructions. The negative control was DMSO, and the positive control was a commercial inhibitor, both of which were used to treat the cells through the same method as that of the compounds of the present disclosure. The growth inhibition of the compounds of the present disclosure on cells was plotted by Prism Graphpad software, and the IC50 values of the compounds of the present disclosure were calculated therefrom.
(§3) We tested the activities of the compounds of the present invention (including the compounds in Table 1 and Examples 1-23 compounds) in multiple myeloma cancer cells MM.1S cell and B lymphoma cells Daudi through a dose-dependent manner. The cells were treated with the compounds of the present invention at 10 different successively decreasing concentrations (starting at the highest concentration of […]; 5-fold serial dilutions) for 72 h, and then the cell viability determination was performed in accordance with CCK-8 reagent operating instructions.

[1] = test system: multiple myeloma cancer cells MM.1S; assay: Cell proliferation inhibition (cell viability, CCK-8) in MM.1S; type: cell-based; settings: Homo sapiens, MM1.S; MM.1S cells, 72 h treatment, CCK-8 cell viability
Text: as §1, §2, §3

Structure (SMILES)	IC50 (B lymphoma cells Daudi)	IC50 [1]
Cc1nc2cccc(NCc3ccc(CO)cc3)c2c(=O)n1C1CCC(=O)NC1=O (centres unmarked) [SIAIS313055, 3-(5-((4-(hydroxymethyl)benzyl)amino)-2-methyl-4-oxoquinazolin-3(4H)-yl)piperidine-2,6-dione]	166 ± 14.7 nM	36.4 ± 6.74 nM
Cc1nc2cccc(NCc3ccccc3F)c2c(=O)n1C1CCC(=O)NC1=O (centres unmarked) [SIAIS264123, 3-(5-((2-fluorobenzyl)amino)-2-methyl-4-oxoquinazolin-3(4H)-yl)piperidine-2,6-dione]	322 ± 22.1 nM	57.5 ± 11.5 nM
Cc1nc2cccc(NCc3ccc(CNC45CC6CC(CC(C6)C4)C5)cn3)c2c(=O)n1C1CCC(=O)NC1=O (centres unmarked) [SIAIS355068, 3-(5-(((5-(((adamantan-1-yl)amino)methyl)pyridin-2-yl)methyl)amino)-2-methyl-4-oxoquinazolin-3(4H)-yl)piperidine-2,6-dione]	139 ± 22 nM	37.7 ± 12.1 nM
Cc1nc2cccc(NCC3CCC(C(=O)NC45CC6CC(CC(C6)C4)C5)CC3)c2c(=O)n1C1CCC(=O)NC1=O (centres unmarked) [SIAIS313068, N-((3s,5s,7s)-adamantan-1-yl)-4-(((3-(2,6-dioxopiperidin-3-yl)-2-methyl-4-oxo-3,4-dihydroquinazolin-5-yl)amino)methyl)cyclohexanecarboxamide]	492 ± 33.2 nM	83.7 ± 2.79 nM
Cc1nc2cccc(NCCc3ccccc3)c2c(=O)n1C1CCC(=O)NC1=O (centres unmarked) [SIAIS264103, 3-(2-methyl-4-oxo-5-(phenethylamino)quinazolin-3(4H)-yl)piperidine-2,6-dione]	826 ± 37.3 nM	87.3 ± 5.18 nM

Molecules with a lower IC50 [1], results first:

IC50 (B lymphoma cells Daudi)	IC50 [1]	Structure (SMILES)
222 ± 40.9 nM	34.7 ± 5.29 nM	Cc1nc2cccc(NCc3ccc4c(c3)OCO4)c2c(=O)n1C1CCC(=O)NC1=O (centres unmarked) [SIAIS264177, 3-(5-((benzo[d][1,3]dioxol-5-ylmethyl)amino)-2-methyl-4-oxoquinazolin-3(4H)-yl)piperidine-2,6-dione]
105 ± 19.9 nM	22.1 ± 12 nM	Cc1nc2cccc(NCc3ccc(CN4CCCCCC4)cn3)c2c(=O)n1C1CCC(=O)NC1=O (centres unmarked) [SIAIS355062, 3-(5-(((5-(azepan-1-ylmethyl)pyridin-2-yl)methyl)amino)-2-methyl-4-oxoquinazolin-3(4H)-yl)piperidine-2,6-dione]
129 ± 18.8 nM	21.5 ± 5.84 nM	Cc1nc2cccc(NCc3ccc(CN4CCCCC4)cc3)c2c(=O)n1C1CCC(=O)NC1=O (centres unmarked) [SIAIS313069, 3-(2-methyl-4-oxo-5-((4-(piperidin-1-ylmethyl)benzyl)amino)quinazolin-3(4H)-yl)piperidine-2,6-dione]
131 ± 27.6 nM	16.4 ± 2.82 nM	Cc1nc2cccc(NCc3ccc(CN4CC(C)CC(C)C4)cc3)c2c(=O)n1C1CCC(=O)NC1=O (centres unmarked) [SIAIS313075, 3-(5-((4-((3,5-dimethylpiperidin-1-yl)methyl)benzyl)amino)-2-methyl-4-oxoquinazolin-3(4H)-yl)piperidine-2,6-dione]
44.8 ± 19.6 nM	9.64 ± 0.83 nM	Cc1nc2cccc(NCc3ccc(CNC45CC6CC(CC(C6)C4)C5)cc3)c2c(=O)n1C1CCC(=O)NC1=O [SIAIS264156, 3-(5-((4-(((1R,3R,5S)-adamantan-1-ylamino)methyl)benzyl)amino)-2-methyl-4-oxoquinazolin-3(4H)-yl)piperidine-2,6-dione]
82.9 ± 25.9 nM	5.61 ± 2.41 nM	Cc1nc2cccc(NCc3ccc(CNC45CC6CC(CC(C6)C4)C5)cc3F)c2c(=O)n1C1CCC(=O)NC1=O (centres unmarked) [SIAIS355049, 3-(5-((4-((adamantan-1-ylamino)methyl)-2-fluorobenzyl)amino)-2-methyl-4-oxoquinazolin-3(4H)-yl)piperidine-2,6-dione]
	2.52 ± 0.68 nM	Cc1nc2cccc(NCc3ccc(CNC4C5CC6CC(C5)CC4C6)cc3)c2c(=O)n1C1CCC(=O)NC1=O [SIAIS264172, 3-(5-((4-(((1R,2s,3S,5r)-adamantan-2-ylamino)methyl)benzyl)amino)-2-methyl-4-oxoquinazolin-3(4H)-yl)piperidine-2,6-dione]
